How the values were obtained:
STAT5b = target: T1, STAT5b (Homo sapiens, UniProt P51692); experiment: Fluorescence polarization (FP) binding assay, STAT5b; details: for inhibition at 200 µM: read-out: STAT5b inhibition at 200 μM
T1 sequence (P51692 1-787): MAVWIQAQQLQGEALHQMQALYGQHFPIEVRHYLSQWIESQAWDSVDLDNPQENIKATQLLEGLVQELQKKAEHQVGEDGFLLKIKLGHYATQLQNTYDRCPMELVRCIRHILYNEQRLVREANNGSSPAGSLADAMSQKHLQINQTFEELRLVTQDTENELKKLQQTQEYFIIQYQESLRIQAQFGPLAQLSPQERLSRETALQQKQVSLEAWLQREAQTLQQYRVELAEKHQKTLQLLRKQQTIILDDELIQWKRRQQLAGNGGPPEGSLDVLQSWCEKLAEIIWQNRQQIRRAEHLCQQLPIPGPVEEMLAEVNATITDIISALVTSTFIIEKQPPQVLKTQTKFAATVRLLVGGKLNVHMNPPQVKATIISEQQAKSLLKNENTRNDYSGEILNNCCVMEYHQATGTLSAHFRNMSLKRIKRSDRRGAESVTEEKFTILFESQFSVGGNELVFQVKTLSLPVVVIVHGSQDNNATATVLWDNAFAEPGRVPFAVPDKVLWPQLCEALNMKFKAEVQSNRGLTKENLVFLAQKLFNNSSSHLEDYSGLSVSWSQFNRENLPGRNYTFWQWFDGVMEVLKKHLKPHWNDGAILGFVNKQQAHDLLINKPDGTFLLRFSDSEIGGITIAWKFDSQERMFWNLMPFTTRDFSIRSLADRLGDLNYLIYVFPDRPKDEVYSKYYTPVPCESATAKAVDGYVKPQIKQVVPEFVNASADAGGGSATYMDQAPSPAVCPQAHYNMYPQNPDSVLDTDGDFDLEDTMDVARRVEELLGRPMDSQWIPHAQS
Protocol: (§1) Table S1: Activities of test compounds against STAT5a and STAT5b in FP assays . Experiments were carried out in triplicate (n = 3) unless stated otherwise. n/a: not applicable.
(§2) [a]data taken from the literature.[1]
(§3) Ki values were calculated from IC50 values using the published equation.[2] […]
(§4) Table S2: Activities of 12 against STAT5 proteins in FP assays.
(§5) Fluorescence polarization assays
(§6) Fluorescence polarization assays were essentially carried out as previously described.[1] These assays quantitate to which extent a test compound is able to interfere with binding between a STAT protein and a fluorescein-labeled phosphotyrosine-containing peptide, which is known to bind to the SH2 domain of the respective STAT protein. The following protein […]
(§7) concentrations were used: 100 nM for STAT1, 150 nM for STAT3, 30 nM for STAT4, 180 nM for STAT5a, 90 nM for STAT5b and 105 nM for STAT6. All peptides were used at a concentration of 10 nM. The following peptides were used: 5 -carboxyfluorescein -GpYDKPHVL for STAT1; 5-carboxyfluorescein -GpYLPQTV-NH2 for STAT3; 5-carboxyfluorescein-GpYLPQNID-OH for STAT4; 5-carboxyfluorescein-GpYLVLDKW for STAT5a/b, and 5-carboxyfluorescein-GpYVPWQDLI-OH for STAT6. As a buffer system, 10 mM Tris (pH 8.0), 50 mM NaCl, 1 mM EDTA, 1 mM DTT, 0.1 % Nonidet P-40 substitute, and 2 % DMSO in water was used. All compounds tested were incubated for 1 h with the protein. Subsequently, the fluorescein-labeled peptide was added and the fluorescence polarization was measured with an Infinite F500 plate reader (Tecan) after another hour. IC50 values were converted to Ki-values using the published equation.[2]

STAT5a [1] = target: T2, STAT5a (Homo sapiens, UniProt P42229); experiment: Fluorescence polarization (FP) binding assay, STAT5a
T2 sequence (P42229 1-794): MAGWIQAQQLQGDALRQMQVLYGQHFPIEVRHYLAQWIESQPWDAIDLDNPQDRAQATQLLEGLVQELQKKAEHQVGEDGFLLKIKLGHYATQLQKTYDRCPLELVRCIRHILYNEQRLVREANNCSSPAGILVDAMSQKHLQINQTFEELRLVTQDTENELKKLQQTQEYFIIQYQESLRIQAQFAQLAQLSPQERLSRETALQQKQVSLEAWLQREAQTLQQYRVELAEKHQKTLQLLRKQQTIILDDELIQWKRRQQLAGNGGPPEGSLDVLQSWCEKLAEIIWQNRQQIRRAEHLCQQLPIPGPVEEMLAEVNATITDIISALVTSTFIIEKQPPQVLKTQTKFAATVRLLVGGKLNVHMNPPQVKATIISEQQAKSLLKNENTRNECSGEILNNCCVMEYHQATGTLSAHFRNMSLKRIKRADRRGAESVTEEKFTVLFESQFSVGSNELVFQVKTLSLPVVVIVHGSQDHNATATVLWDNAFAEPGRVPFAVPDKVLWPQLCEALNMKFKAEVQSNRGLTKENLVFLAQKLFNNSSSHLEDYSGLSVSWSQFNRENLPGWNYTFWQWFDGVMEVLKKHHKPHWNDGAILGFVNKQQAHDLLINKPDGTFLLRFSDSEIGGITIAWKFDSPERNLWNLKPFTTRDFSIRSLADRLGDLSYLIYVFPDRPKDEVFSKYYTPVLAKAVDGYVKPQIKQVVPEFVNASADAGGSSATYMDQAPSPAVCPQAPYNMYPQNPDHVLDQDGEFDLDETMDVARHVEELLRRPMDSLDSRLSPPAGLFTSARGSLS
Protocol: as §1, §2, §3, §4, §5, §6, §7

STAT5a [2] = target: T2, STAT5a; details: cited from earlier work

SMILES | IC50 (STAT5b) [µM] | Ki (STAT5b) [µM] | IC50 (STAT5a [1]) [µM] | Ki (STAT5a [1]) [µM] | inhibition at 200 µM (STAT5b) [%] | melting point [°C] | selectivity for STAT5a over STAT5b (STAT5a [2])
COc1cc(-c2cc(OP(=O)(O)O)cc(-c3ccc(C(C)(C)C)cc3)c2)cc(OC)c1OC [6 j] | 51.4 ± 4.9 | 25.3 ± 2.4 | 66.9 ± 4.9 | 33.2 ± 2.4 |  |  | 
COc1cc(-c2cc(OP(=O)(O)O)cc(-c3ccc(C(N)=O)cc3)c2)cc(OC)c1OC [6 f] |  |  | 68.9 ± 4.9 | 34.1 ± 2.4 | 21 ± 6 |  | 
COc1cc(-c2cc(OP(=O)(O)O)cc(-c3ccc(C(C)C)cc3)c2)cc(OC)c1OC [6 i] | 51.8 ± 5.1 | 25.5 ± 2.5 | 48.5 ± 4.8 | 24 ± 2.4 |  | 182 | 
COc1cc(-c2cc(OP(=O)(O)O)cc(-c3ccc(F)cc3)c2)cc(OC)c1OC [6 d] |  |  | 66.5 ± 5 | 33 ± 2.5 | 51 ± 4 | 165 | 
COc1cc(-c2cc(OP(=O)(O)O)cc(-c3ccc(Cl)cc3)c2)cc(OC)c1OC [6 c] | 93.8 ± 1.5 | 46.1 ± 0.8 | 45.7 ± 3.3 | 22.6 ± 1.6 |  | 129 | 
COc1cc(-c2cc(OP(=O)(O)O)cc(-c3ccc(C(=O)O)cc3)c2)cc(OC)c1OC [6 h] |  |  | 36.8 ± 2.2 | 18.2 ± 1.1 | 50 ± 2 | 152 | 
COc1cc(-c2cc(OP(=O)(O)O)cc(-c3cc(Cl)c(Cl)c(Cl)c3)c2)cc(OC)c1OC [6 a] | 47 ± 2.6 | 23.1 ± 1.3 | 21.8 ± 0.9 | 10.2 ± 0.4 |  |  | 
CCOC(=O)c1ccc(-c2cc(OP(=O)(O)O)cc(-c3cc(OC)c(OC)c(OC)c3)c2)cc1 [6 g] | 125 ± 3.7 | 61.3 ± 1.8 | 91.2 ± 5.5 | 45.2 ± 2.7 |  | 150 | 
COc1cc(-c2cc(OP(=O)(O)O)cc(-c3ccc(Cl)c(F)c3)c2)cc(OC)c1OC [6 e] | 104 ± 9.5 | 51.2 ± 4.7 | 34.7 ± 4.4 | 17.1 ± 2.2 |  | 127 | 
COc1cc(-c2cc(OP(=O)(O)O)cc(-c3cc(OC)c(OC)c(OC)c3)c2)cc(OC)c1OC [compound 1] |  |  |  |  |  |  | at least 9 fold
